PMC10514301 (Signal Transduction and Targeted Therapy, 2023)
Values joined by “and” are separate entries in the source; they are usually repeats but may differ in a detail not shown here. Equal values may be shown once. Read-outs that look alike come from different tables or passages of the source.

What was measured:
[1] = system: HCoV-229E; assay: Antiviral activity against HCoV-229E in MRC5 cells (qRT-PCR); format: cell-based; settings: Human coronavirus 229E, MRC5, 48 h, read-out: EC50 mean ± sd, MRC5, 229E
[2] = Plasma pharmacokinetics after oral administration in C57BL/6J mice; settings: for decrease of plasma Cmax in the VV116-nirmatrelvir combination compared with the individual study / decrease of plasma exposure in the VV116-nirmatrelvir combination compared with the individual study: oral VV116 + nirmatrelvir + ritonavir 50 + 100 + 50 mg/kg
Experimental: The PK studies were conducted at Suzhou HQ Bioscience Co., Ltd. Eighteen C57BL/6J mice (N = 6 for each group, male) were randomly divided into three groups, and fasted for 12 h before dosing. […] The vehicle for oral administration of the test compounds was 5% DMSO + 5% Solutol HS-15 + 5% PEG400 + 85% Saline. Blood sample (70 μL) was collected from the orbit of the first three mice in each group at 0.25, 1.0, 4.0, and 8.0 and the last three mice in each group at 0.5, 2.0, 6.0, and 24 h post-dosing. The sample was taken into EDTA-K2 tubes, and centrifuged at 11,000 rpm for 5 min. The plasma was separated and frozen in a refrigerator at −70 °C for testing. The operation was conducted under an ice water bath. The concentration of analyte in plasma was determined by LC–MS/MS.

[3] = system: HCoV-OC43; assay: Antiviral activity against HCoV-OC43 in Huh-7 cells (qRT-PCR); format: cell-based; settings: Betacoronavirus 1, OC43, Huh-7, 48 h, read-out: EC50 mean ± sd, Huh-7, OC43
[4] = system: HCoV-OC43; assay: Antiviral activity against HCoV-OC43 in RD cells (qRT-PCR); format: cell-based; settings: Betacoronavirus 1, OC43, RD, 48 h, read-out: EC50 mean ± sd, RD, OC43
[5] = system: HCoV-229E; assay: Antiviral activity against HCoV-229E in Huh-7 cells (qRT-PCR); format: cell-based; settings: Human coronavirus 229E, Huh-7, 48 h, read-out: EC50 mean ± sd, Huh-7, 229E
[6] = system: HCoV-OC43; assay: Median effect plots of individual drugs against HCoV-OC43 in RD cells; format: cell-based
[7] = system: HCoV-OC43; assay: In vivo efficacy against HCoV-OC43 in suckling mice; set-up: species or system suckling Balb/c mice
[8] = Cytotoxicity in RD cells; format: cell-based; settings: human
[9] = male, C57BL/6J, mouse, plasma, po, 50 mg/kg
[10] = Betacoronavirus 1, read-out: IC50 (drug concentration that inhibit 50% viral replication), HCoV-OC43, RD cells, MOI 0.1, 48 hpi, median effect plot
[11] = Betacoronavirus 1, OC43, RD, read-out: IC50 (drug concentration that inhibit 50% viral replication)

Compound: [2H]c1cc([C@]2(C#N)O[C@H](CO)[C@@H](O)[C@H]2O)n2ncnc(N)c12 [X1]
- EC50 [1]: 60 ± 160 nM
- AUC(0-t) [2, 9]: 19500 ng·h/mL
- Cmax [2, 9]: 10700 ng/mL and 36.6 µM
- decrease of plasma Cmax in the VV116-nirmatrelvir combination compared with the individual study [2]: 20.3%
- decrease of plasma exposure in the VV116-nirmatrelvir combination compared with the individual study [2]: 13.5%
- EC50 [3]: 1100 ± 61 nM
- EC50 [4]: 800 ± 420 nM
- EC50 [5]: 570 ± 70 nM

Compound: Cc1cnc(C(=O)N[C@H]2CCCCC/C=C\[C@@H]3C[C@@]3(C(=O)NS(=O)(=O)C3CC3)NC(=O)[C@@H]3C[C@@H](Oc4nc5ccccc5c5ccccc45)CN3C2=O)cn1 [Paritaprevir, paritaprevir]
- IC50 [6, 10]: 2500 nM
- slope steepness (m) of the dose-response curve ([6]; OC43): 1.55

Compound: Cc1cccc(C)c1OCC(=O)N[C@@H](Cc1ccccc1)[C@@H](O)C[C@H](Cc1ccccc1)NC(=O)[C@H](C(C)C)N1CCCNC1=O [Lopinavir, lopinavir]
- IC50 [6, 10]: 1440 nM
- slope steepness (m) of the dose-response curve ([6]; OC43): 1.94

Compound: N#C[C@@]1(c2ccc3c(N)ncnn23)O[C@H](CO)[C@@H](O)[C@H]1O [GS-441524]
- EC50 [1]: 30 ± 21 nM
- EC50 [3]: 1400 ± 55 nM
- EC50 [4]: 460 ± 79 nM
- EC50 [5]: 560 ± 82 nM

Compound: NC(=O)c1ncn([C@@H]2O[C@H](CO)[C@@H](O)[C@H]2O)n1 [Ribavirin, ribavirin]
- IC50 [6, 10]: 49500 nM
- slope steepness (m) of the dose-response curve ([6]; OC43): 2.19

Compound: CC(C)(C)NC(=O)N[C@H](C(=O)N1C[C@H]2[C@@H]([C@H]1C(=O)NC(CC1CCC1)C(=O)C(N)=O)C2(C)C)C(C)(C)C (some centres unmarked) [Boceprevir, boceprevir]
- IC50 [6, 10]: 26900 nM
- slope steepness (m) of the dose-response curve ([6]; OC43): 11.2

Compound: CC(C)(C)[C@H](NC(=O)C(F)(F)F)C(=O)N1C[C@H]2[C@@H]([C@H]1C(=O)N[C@H](C#N)C[C@@H]1CCNC1=O)C2(C)C [Nirmatrelvir, nirmatrelvir]
- decrease of plasma Cmax in the VV116-nirmatrelvir combination compared with the individual study [2]: 12.5%
- decrease of plasma exposure in the VV116-nirmatrelvir combination compared with the individual study [2]: 19.8%
- IC50 [6, 11]: 121 nM
- slope steepness (m) of the dose-response curve ([6]; OC43): 4.49
- viral loads (titers, immunoplaque assay) in organs ([7]; VV116 50 mpk, nirmatrelvir 10 and 20 mpk with ritonavir, the two combinations): less than the limit of detection (LOD)
- inflammation (cytokine gene expression) in the brain ([7]; VV116 50 mpk, nirmatrelvir 10 mpk, 25 mpk): dramatically reduced inflammation
- lung histopathology (hematoxylin and eosin) ([7]; VV116 50 mpk, nirmatrelvir 10 mpk, 25 mpk, Combo 1, Combo 2): significantly improved
- inflammation suppression (cytokine gene expression), especially IL-6 in the lungs ([7]; individual VV116 and nirmatrelvir treatments versus Combo 1 and Combo 2): limited inflammation suppression
- viral copies in the brain ([7]; oral once a day, VV116 25 and 50 mpk, nirmatrelvir 25 mpk with ritonavir 50 mpk): almost completely cleared

Compound: CCC(CC)COC(=O)[C@H](C)N[P@](=O)(OC[C@H]1O[C@@](C#N)(c2ccc3c(N)ncnn23)[C@H](O)[C@@H]1O)Oc1ccccc1 [RDV, remdesivir]
- CC50 [8]: 1570 nM
- EC50 [4]: 21 ± 35 nM
- IC50 [6, 11]: 20.2 nM
- slope steepness (m) of the dose-response curve ([6]; OC43): 2.40
- EC50 [5]: 41 nM

Compound: COc1ccc2c(O[C@@H]3C[C@H]4C(=O)N[C@]5(C(=O)NS(=O)(=O)C6CC6)C[C@H]5/C=C\CCCCN(C)C(=O)[C@@H]4C3)cc(-c3nc(C(C)C)cs3)nc2c1C [Simeprevir, simeprevir]
- IC50 [6, 10]: 2220 nM
- slope steepness (m) of the dose-response curve ([6]; OC43): 2.18

Compound: O=c1nc(NO)ccn1[C@@H]1O[C@H](CO)[C@@H](O)[C@H]1O [NHC, β-d-N4-hydroxycytidine]
- slope steepness (m) of the dose-response curve ([6]; HCoV-OC43, RD cells, MOI 0.1, 48 hpi, median effect plot): 2.80
- IC50 ([6]; read-out: IC50 (drug concentration that inhibit 50% viral replication), HCoV-OC43, RD cells, MOI 0.1, 48 hpi, median effect plot): 5680 nM
